Where two headings read alike, the source gives them in different places.
How the values were obtained:
[1] = test system: multiple cell lines; test: Proliferation of multiple cell lines (FIG. 59); assay type: cell-based; conditions: FIG. 59A-E
Procedure: Proliferation of multiple cell lines was evaluated for CMPD 5, CMPD 7, HLCL61, HLCL-65, and HLCL-66 (FIG. 59A-E).

[2] = test system: JeKo cells; test: Immunofluorescence staining of methylated H4(Me2)R3 / H3(Me2)R8; assay type: cell-based; conditions: FIG. 2F
Procedure: DAPI was used to stain nuclei.
Immunofluorescence assays for screening for presence of type II PRMT epigenetic marks (H4(SMe2)R3) compared to type I mark (H4(AMe2)R3). Cell lines were incubated for 24 hours with all the 14 compounds. After 24 hours, cells were fixed, blocked and treated with mAbs specific for symmetric dimethylation and asymmetric dimethylation of histone H4R3 respectively. Alexa Fluor 488 conjugated 2nd Ab was used for the staining of histone marks (green). Draq5 was used to stain nuclei (blue).

[3] = test system: Mantle cell lymphoma cell line Jeko; test: MTS anti-proliferation assay; assay type: cell-based
Procedure: MTS proliferation assays were performed according the CellTiter 96™ Aqueous Cell Proliferation Assay Technical Bulletin (Promega, Madison, Wis.). 5×10^5 cells were plated in each well of a 96-well plate at 37° C. and assayed for proliferation at 24, 48, and 72 hr. Proliferation signal at 50% of control was used as IC50 for growth.
(§1) Following the synthesis of 14 compounds, the anti-proliferation and pro-apoptotic activities of those compounds was evaluated in Mantle cell lymphoma cell line Jeko. Replicate cultures of Jeko were incubated in DMSO and the compounds for 24, 48 and 72 hours. FITC-Annexin V-PI stained flow cytometry was used to detect the apoptotic population of cells (Table 4).

[4] = 24 hr Quick MTD test, one mouse for each dose; assay type: in vivo
Procedure: (§2) Controlled shRNA depletion was evaluated in a murine lymphoma model (Eμ-BRD2 (Chung, J., et al. (2013) J. Biological Chemistry 288, 35534-35547)) and human xenograft model of glioblastoma (Yan, F., et al (2014) Cancer Research In Press). Referring to FIG. 62A, controlled expression of a PRMT5 shRNA (solid line) but not control shRNA (dashed line) leads to 100% survival of mice engrafted primary DLBCL tumor cells. […] The maximum tolerated dose (MTD, single dose) was identified at 50 mg/kg (see Table 11 below). A sub-toxic dose (25 mg/kg) was used to treat FcMCL mice. Control mice developed peripheral blood and lymph node tumor burden starting day 20 post-engraftment.

[5] = MTD study, four mice each dose; assay type: in vivo
Procedure: as §2

[6] = In vivo pharmacokinetics, plasma concentration; parameters: species or system Mouse; conditions: for concentration at 0.08 h / concentration at 0.17 h / concentration at 0.33 h / concentration at 0.5 h / concentration at 1 h / concentration at 2 h / concentration at 4 h / concentration at 6 h / concentration at 8 h / concentration at 24 h: mouse, in vivo
Source text: Pharmacokinetic data of compounds HLCL-7, HLCL-61, and HLCL-66 taken from an in vivo study is illustrated in Table 10. […]

[7] = test system: Mantle cell lymphoma cell line Jeko; test: Induction of apoptosis, FITC-Annexin V-PI flow cytometry; assay type: cell-based
Procedure: Analysis by flow cytometry. Cell viability was also measured by flow cytometry at 24 and 48 hr using annexin-V-FITC and propidium iodide (PI) according to the manufacturer's instructions (BD Biosciences).
as §1

[8] = test system: HNSCC tumor cells; test: Proliferation of HNSCC tumor cells; assay type: cell-based; conditions: FIG. 58
[9] = molecular target: T1, recombinant human PRMT5/MEP50 enzyme (Homo sapiens, UniProt O14744); test: Epigenase PRMT methyltransferase (type II-specific) activity/inhibition assay kit; assay type: biochemical; conditions: 25 ng recombinant human PRMT5/MEP50 per reaction; read-out: Inhibition of PRMT5 mediated H4R3 methylation (IC50)
T1 construct: purchased BPS Bioscience
T1 sequence (O14744 2-637 limits assumed): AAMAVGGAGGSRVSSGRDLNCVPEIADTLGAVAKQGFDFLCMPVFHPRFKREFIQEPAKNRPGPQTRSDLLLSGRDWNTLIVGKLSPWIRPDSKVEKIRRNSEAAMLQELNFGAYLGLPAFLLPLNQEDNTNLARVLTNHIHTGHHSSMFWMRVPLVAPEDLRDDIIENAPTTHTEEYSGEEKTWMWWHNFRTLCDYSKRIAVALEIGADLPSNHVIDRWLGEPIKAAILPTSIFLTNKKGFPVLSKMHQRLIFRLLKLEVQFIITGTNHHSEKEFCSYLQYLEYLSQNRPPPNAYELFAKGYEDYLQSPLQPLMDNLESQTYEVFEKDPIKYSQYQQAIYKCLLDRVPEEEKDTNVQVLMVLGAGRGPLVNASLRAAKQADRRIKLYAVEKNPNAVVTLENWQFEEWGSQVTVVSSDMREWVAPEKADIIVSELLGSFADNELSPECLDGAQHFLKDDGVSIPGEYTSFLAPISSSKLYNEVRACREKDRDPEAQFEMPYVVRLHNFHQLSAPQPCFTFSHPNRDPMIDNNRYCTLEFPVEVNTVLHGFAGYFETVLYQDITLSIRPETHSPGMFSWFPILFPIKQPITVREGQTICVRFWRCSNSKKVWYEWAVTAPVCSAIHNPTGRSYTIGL
T1 sequence (Q9BQA1 2-342 partner limits assumed): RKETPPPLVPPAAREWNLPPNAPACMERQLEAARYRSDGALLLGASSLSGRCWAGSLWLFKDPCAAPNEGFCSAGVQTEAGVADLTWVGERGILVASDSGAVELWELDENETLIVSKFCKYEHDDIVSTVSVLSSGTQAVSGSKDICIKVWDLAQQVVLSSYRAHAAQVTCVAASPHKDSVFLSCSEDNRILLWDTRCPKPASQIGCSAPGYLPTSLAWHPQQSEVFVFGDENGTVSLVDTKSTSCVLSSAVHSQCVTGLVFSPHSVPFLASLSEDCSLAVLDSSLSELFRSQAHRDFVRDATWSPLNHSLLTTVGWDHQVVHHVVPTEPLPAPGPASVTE
Procedure: The inhibition of PRMT5 mediated H4R3 methylation result was obtained with Epigenase™ PRMT methyltransferase (type II-specific) activity/inhibition assay kit. 25 ng recombinant human PRMT5/MEP50 enzyme (purchased from BPS Bioscience) was used in each reaction.

[10] = test system: FcMCL mice; test: FcMCL mantle cell lymphoma mouse model; assay type: in vivo; conditions: 25 mg/kg, IP, every other day
Procedure: as §2

[11] = mouse, in vivo, ip, 50 mg/kg, 24 h

CCn1c2ccccc2c2cc(CNCc3ccccn3)ccc21 [CMP5, reference compound]
potency, proliferation of multiple cell lines [1]: low micromolar range | PRMT5 driven epigenetic marks (symmetrically methylated H4(Me2)R3, H3(Me2)R8) [2]: interferes with PRMT5 driven epigenetic marks

CCn1c2ccccc2c2cc(NC(=N)Nc3ccc(S(C)(=O)=O)cc3)ccc21 [HLCL-7]
IC50 ([3]; 24 h incubation): 32 µM | IC50 ([3]; 48 h incubation): 26 µM | IC50 ([3]; 72 h incubation): 13 µM | survival after dosing ([4]; IV-2.5 mg/kg, one mouse): Alive 24 hr after | survival after dosing [4, 11]: Alive 24 hr after | survival after dosing ([4]; mouse, in vivo, ip, 100 mg/kg, 24 h): Dead within 1 hr after | survival after dosing ([4]; mouse, in vivo, ip, 200 mg/kg, 24 h): Dead within 1 hr after | survival after dosing ([4]; mouse, in vivo, iv, 5 mg/kg, 24 h): Alive 24 hr after | clinical signs after dosing (slow moving) ([4]; mouse, in vivo, iv, 10 mg/kg): dosing but slow | survival after dosing ([4]; mouse, in vivo, iv, 10 mg/kg, 24 h): Alive 24 hr after | survival after dosing ([4]; mouse, in vivo, iv, 20 mg/kg): Dead instantly after | survival 24 hr after dosing ([5]; mouse, in vivo, ip, 5 mg/kg, 24 h): Alive 24 hr after | condition within 1 hr after dosing (alive but slow moving) ([5]; mouse, in vivo, ip, 50 mg/kg): Alive within 1 hr after | mice lethargic and slow moving 24 hr after dosing [5, 11]: after dosing, 1 out 4 | survival 24 hr after dosing [5, 11]: moving. Alive 24 hr | concentration at 0.08 h ([6]; ip, 25 mg/kg): 7570 nM | concentration at 0.17 h ([6]; ip, 25 mg/kg): 886 nM | concentration at 0.33 h ([6]; ip, 25 mg/kg): 7540 nM | concentration at 0.5 h ([6]; ip, 25 mg/kg): 7480 nM | concentration at 1 h ([6]; ip, 25 mg/kg): 4910 nM | concentration at 2 h ([6]; ip, 25 mg/kg): 7680 nM | concentration at 4 h ([6]; ip, 25 mg/kg): 4130 nM | concentration at 6 h ([6]; ip, 25 mg/kg): 2540 nM | concentration at 8 h ([6]; ip, 25 mg/kg): 2790 nM | concentration at 24 h ([6]; ip, 25 mg/kg): 1.35 nM | concentration at 0.08 h ([6]; iv, 5 mg/kg): 3240 nM | concentration at 0.17 h ([6]; iv, 5 mg/kg): 3070 nM | concentration at 0.33 h ([6]; iv, 5 mg/kg): 1500 nM | concentration at 0.5 h ([6]; iv, 5 mg/kg): 911 nM | concentration at 1 h ([6]; iv, 5 mg/kg): 601 nM | concentration at 2 h ([6]; iv, 5 mg/kg): 507 nM | concentration at 4 h ([6]; iv, 5 mg/kg): 200 nM | concentration at 6 h ([6]; iv, 5 mg/kg): 76.2 nM | concentration at 8 h ([6]; iv, 5 mg/kg): 77.1 nM | concentration at 24 h ([6]; iv, 5 mg/kg): 1.38 nM | EC50 ([7]; 24 h): 32 µM | EC50 ([7]; 48 h): 26 µM | proliferation of HNSCC tumor cells [8]: inhibit proliferation in a dose-dependent manner | IC50 [9]: 7 µM

CCn1c2ccc(Br)cc2c2cc(CNCc3ccccc3OC)ccc21 [HLCL-65]
potency, proliferation of multiple cell lines [1]: low micromolar range | IC50 ([3]; 24 h incubation): 9 µM | IC50 ([3]; 48 h incubation): 8 µM | IC50 ([3]; 72 h incubation): 6 µM | survival after dosing ([4]; IP-50 mg/kg, one mouse): Alive 24 hr after | clinical signs after dosing ([4]; IP-100 mg/kg, one mouse, after 24 hr): paralyzed | clinical signs after dosing ([4]; IP-200 mg/kg, one mouse): Paralyzed after dosing, | survival after dosing ([4]; IP-200 mg/kg, one mouse): dead within 1 hr | survival after dosing ([4]; IV-2.5 mg/kg, one mouse): Dead instantly after | survival after dosing ([4]; IV-5 mg/kg, one mouse): Alive 24 hr after | survival after dosing ([4]; IV-10 mg/kg, one mouse): Dead instantly after | survival after dosing ([4]; IV-20 mg/kg, one mouse): Dead instantly after | survival 24 hr after dosing ([5]; IP-5 mg/kg, four mice): Alive 24 hr after | condition within 1 hr after dosing (alive but slow moving) ([5]; IP-50 mg/kg, four mice): Alive within 1 hr after | survival 24 hr after dosing ([5]; IP-50 mg/kg, four mice): moving. Alive 24 hr | MTD at 24 h ([5]; mouse, in vivo, single dose, mice, read-out: maximum tolerated dose (MTD, single dose)): 50 mg/kg | peak plasma concentrations ([6]; IV and IP routes at a dose of 25 mg/kg, FIG. 62B): 8 to 20 µM | concentration at 0.08 h ([6]; IP 25 mg/kg, DMSO solution, 0.08 h, read-out: Mouse plasma concentration): 6240 nM | concentration at 0.17 h ([6]; IP 25 mg/kg, DMSO solution, 0.17 h, read-out: Mouse plasma concentration): 6270 nM | concentration at 0.33 h ([6]; IP 25 mg/kg, DMSO solution, 0.33 h, read-out: Mouse plasma concentration): 5280 nM | concentration at 0.5 h ([6]; IP 25 mg/kg, DMSO solution, 0.50 h, read-out: Mouse plasma concentration): 1660 nM | concentration at 1 h ([6]; IP 25 mg/kg, DMSO solution, 1.00 h, read-out: Mouse plasma concentration): 1590 nM | concentration at 2 h ([6]; IP 25 mg/kg, DMSO solution, 2.00 h, read-out: Mouse plasma concentration): 8450 nM | concentration at 4 h ([6]; IP 25 mg/kg, DMSO solution, 4.00 h, read-out: Mouse plasma concentration): 4510 nM | concentration at 6 h ([6]; IP 25 mg/kg, DMSO solution, 6.00 h, read-out: Mouse plasma concentration): 5480 nM | concentration at 8 h ([6]; IP 25 mg/kg, DMSO solution, 8.00 h, read-out: Mouse plasma concentration): 3710 nM | concentration at 24 h ([6]; IP 25 mg/kg, DMSO solution, 24.0 h, read-out: Mouse plasma concentration): 480 nM | concentration at 0.08 h ([6]; IV 5 mg/kg, Tween80 formulation, 0.08 h, read-out: Mouse plasma concentration): 2940 nM | concentration at 0.17 h ([6]; IV 5 mg/kg, Tween80 formulation, 0.17 h, read-out: Mouse plasma concentration): 2050 nM | concentration at 0.33 h ([6]; IV 5 mg/kg, Tween80 formulation, 0.33 h, read-out: Mouse plasma concentration): 2940 nM | concentration at 0.5 h ([6]; IV 5 mg/kg, Tween80 formulation, 0.50 h, read-out: Mouse plasma concentration): 2390 nM | concentration at 1 h ([6]; IV 5 mg/kg, Tween80 formulation, 1.00 h, read-out: Mouse plasma concentration): 1890 nM | concentration at 2 h ([6]; IV 5 mg/kg, Tween80 formulation, 2.00 h, read-out: Mouse plasma concentration): 1930 nM | concentration at 4 h ([6]; IV 5 mg/kg, Tween80 formulation, 4.00 h, read-out: Mouse plasma concentration): 1530 nM | concentration at 6 h ([6]; IV 5 mg/kg, Tween80 formulation, 6.00 h, read-out: Mouse plasma concentration): 720 nM | concentration at 8 h ([6]; IV 5 mg/kg, Tween80 formulation, 8.00 h, read-out: Mouse plasma concentration): 513 nM | concentration at 24 h ([6]; IV 5 mg/kg, Tween80 formulation, 24.0 h, read-out: Mouse plasma concentration): 29.6 nM | EC50 ([7]; 24 h): 4 µM | EC50 ([7]; 48 h): 5 µM | IC50 [9]: 30 µM | tumor burden in FcMCL mice ([10]; lymph node versus peripheral blood): controlling development of lymph node tumor burden but not peripheral blood FcMCL tumor burden | survival of FcMCL mice ([10]; preliminary experiment): improved survival

From patent US9856218B2, “Inhibitors of PRMT5 and methods of their use” (Ohio State Innovation Foundation, priority 2013, dated 2018)
